Measurements reported in patent US20170239249A1, “QUINAZOLINE-BASED KINASE INHIBITORS” (Bristol-Myers Squibb Company, priority 2014, published 2017).

Molecular target: AAK1 (full length human) (Homo sapiens, UniProt Q2M2I8)
Experiment: HEK281 Cell-Based Assay (phospho-mu2 Western blot in HEK293F cells transfected with AAK1 and AP2M1)
Details: IC50 (nM), functional potency; inhibition of mu2 phosphorylation in HEK293F cells, 3 hours incubation, 5 concentrations

Chain of AAK1 (full length human) (Q2M2I8 1-863 isoform Q2M2I8-2): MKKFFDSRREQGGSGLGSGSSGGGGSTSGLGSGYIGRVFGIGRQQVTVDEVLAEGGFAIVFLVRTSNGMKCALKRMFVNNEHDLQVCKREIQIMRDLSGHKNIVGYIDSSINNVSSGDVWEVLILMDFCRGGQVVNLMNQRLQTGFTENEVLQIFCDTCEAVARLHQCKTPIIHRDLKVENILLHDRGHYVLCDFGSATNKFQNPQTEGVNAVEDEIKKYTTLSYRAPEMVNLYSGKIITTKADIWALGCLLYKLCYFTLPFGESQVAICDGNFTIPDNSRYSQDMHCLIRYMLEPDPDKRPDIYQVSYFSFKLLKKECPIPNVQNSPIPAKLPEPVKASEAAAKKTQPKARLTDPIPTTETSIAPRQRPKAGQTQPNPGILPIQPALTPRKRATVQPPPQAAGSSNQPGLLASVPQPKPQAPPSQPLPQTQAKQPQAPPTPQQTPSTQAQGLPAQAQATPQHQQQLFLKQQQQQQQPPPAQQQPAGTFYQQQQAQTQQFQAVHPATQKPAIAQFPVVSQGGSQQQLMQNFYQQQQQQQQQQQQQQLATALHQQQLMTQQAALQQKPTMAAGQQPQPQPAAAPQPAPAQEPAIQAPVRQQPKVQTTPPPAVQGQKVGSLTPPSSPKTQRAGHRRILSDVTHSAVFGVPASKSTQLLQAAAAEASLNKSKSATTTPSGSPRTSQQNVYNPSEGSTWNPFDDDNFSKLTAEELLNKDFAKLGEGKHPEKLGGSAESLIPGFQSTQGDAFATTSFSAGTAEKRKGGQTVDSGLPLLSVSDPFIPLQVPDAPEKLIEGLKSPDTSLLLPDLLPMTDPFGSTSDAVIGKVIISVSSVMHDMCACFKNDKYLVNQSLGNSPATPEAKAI

SMILES	IC50 [nM]
CC(C)CC(N)c1nc(C#N)c2cc(-c3ccncc3)ccc2n1 (centres unmarked) [Example 33, 2-(1-Amino-3-methylbutyl)-6-(pyridin-4-yl)quinazoline-4-carbonitrile]	14
COc1cnccc1-c1ccc2nc(C(N)CC(C)C)nc(C#N)c2c1 (centres unmarked) [Example 34, 2-(1-Amino-3-methylbutyl)-6-(3-methoxypyridin-4-yl)quinazoline-4-carbonitrile]	12
COc1cc2nc(C(N)CC(C)C)nc(C#N)c2cc1-c1ccncc1 (centres unmarked) [Example 35, 2-(1-Amino-3-methylbutyl)-7-methoxy-6-(pyridin-4-yl)quinazoline-4-carbonitrile]	68
COc1cc2nc([C@H](N)CC(C)C)ncc2cc1-c1cnco1 [Example 36, (R)-1-(7-Methoxy-6-(oxazol-5-yl)quinazolin-2-yl)-3-methylbutan-1-amine]	113
COc1nc(CCC(C)C)nc2ccc(-c3cn[nH]c3)cc12 [Example 37, 2-Isopentyl-4-methoxy-6-(1H-pyrazol-4-yl)quinazoline]	1010
COc1nc(CCC(C)C)nc2ccc(-c3ccncc3)cc12 [Example 38, 2-Isopentyl-4-methoxy-6-(pyridin-4-yl)quinazoline]	1070
CNc1nc(CCC(C)C)nc2ccc(-c3cnco3)cc12 [Example 39, 2-Isopentyl-N-methyl-6-(oxazol-5-yl)quinazolin-4-amine]	1140
CC(C)CCc1nc(N(C)C)c2cc(-c3cnco3)ccc2n1 [Example 40, 2-Isopentyl-N,N-dimethyl-6-(oxazol-5-yl)quinazolin-4-amine]	412
COc1nc(CCC(C)C)nc2ccc(-c3cnco3)cc12 [Example 41, 5-(2-Isopentyl-4-methoxyquinazolin-6-yl)oxazole]	3150
CC(C)CCc1nc2ccc(-c3cnco3)cc2c(=O)[nH]1 [Example 42, 2-Isopentyl-6-(oxazol-5-yl)quinazolin-4(3H)-one]	49
CSc1nc(CCC(C)C)nc2ccc(-c3cnco3)cc12 [Example 43, 5-(2-Isopentyl-4-(methylthio)quinazolin-6-yl)oxazole]	159
CC(C)CCc1nc(NCCN)c2cc(-c3cnco3)ccc2n1 [Example 44, N^1-(2-Isopentyl-6-(oxazol-5-yl)quinazolin-4-yl)ethane-1,2-diamine]	2010
CCc1nc(CCC(C)C)nc2ccc(-c3ccncc3)cc12 [Example 45, 4-Ethyl-2-isopentyl-6-(pyridin-4-yl)quinazoline]	400
CC(C)CCc1nc(C(C)C)c2cc(-c3ccncc3)ccc2n1 [Example 46, 2-Isopentyl-4-isopropyl-6-(pyridin-4-yl)quinazoline]	1390
CC(C)CCc1nc(C2CC2)c2cc(-c3ccncc3)ccc2n1 [Example 47, 4-Cyclopropyl-2-isopentyl-6-(pyridin-4-yl)quinazoline]	1340
CC(C)CCc1nc(NCCN(C)C)c2cc(-c3ccncc3)ccc2n1 [Example 48, N-(2-Isopentyl-6-(pyridin-4-yl)quinazolin-4-yl)-N^2,N^2-dimethylethane-1,2-diamine]	1190
CC(C)CCc1nc2ccc(-c3ccncc3)cc2c(=O)[nH]1 [Example 49, 2-Isopentyl-6-(pyridin-4-yl)quinazolin-4(3H)-one]	54
CC(C)CCc1nc(NCCO)c2cc(-c3ccncc3)ccc2n1 [Example 50, 2-(2-Isopentyl-6-(pyridin-4-yl)quinazolin-4-ylamino)ethanol]	301
CC(C)CCc1nc2ccc(-c3cn[nH]c3)cc2c(=O)[nH]1 [Example 51, 2-Isopentyl-6-(1H-pyrazol-4-yl)quinazolin-4(3H)-one]	22
CCc1nc(CCC(C)C)nc2cc(OC)c(-c3cnco3)cc12 [Example 52, 5-(4-Ethyl-2-isopentyl-7-methoxyquinazolin-6-yl)oxazole]	1270
CC(C)CCc1nc(C(N)=O)c2cc(-c3ccncc3)ccc2n1 [Example 53, 2-Isopentyl-6-(pyridin-4-yl)quinazoline-4-carboxamide]	354
CCOc1cc2nc(CCC(C)C)nc(CC)c2cc1-c1cnco1 [Example 54, 5-(7-Ethoxy-4-ethyl-2-isopentylquinazolin-6-yl) oxazole]	2590
COc1nc(C(N)CC(C)C)nc2ccc(-c3ccncc3)cc12 (centres unmarked) [Example 55, 1-(4-Methoxy-6-(pyridin-4-yl)quinazolin-2-yl)-3-methylbutan-1-amine]	97
CC(C)CCc1nc2ccc(-c3cnco3)cc2c(=S)[nH]1 [Example 56, 2-Isopentyl-6-(oxazol-5-yl)quinazoline-4(3H)-thione]	5
CCc1nc(CCC(C)C)nc2ccc(-c3cnco3)cc12 [Example 57, 5-(4-Ethyl-2-isopentylquinazolin-6-yl)oxazole]	1860

SMILES	IC50 [nM]
COc1cc2nc(CCC(C)C)[nH]c(=O)c2cc1-c1cnco1 [Example 58, 2-Isopentyl-7-methoxy-6-(oxazol-5-yl)quinazolin-4(3H)-one]	20
CC(C)CCc1nc(C(=O)N(C)C)c2cc(-c3ccncc3)ccc2n1 [Example 59, 2-Isopentyl-N,N-dimethyl-6-(pyridin-4-yl)quinazoline-4-carboxamide]	2670
CC(C)CCc1nc(C#N)c2cc(-c3ccncc3)ccc2n1 [Example 60, 2-Isopentyl-6-(pyridin-4-yl)quinazoline-4-carbonitrile]	144
CC(C)CCC1=Nc2ccc(-c3ccncc3)cc2C(CO)N1 (centres unmarked) [Example 61, (2-Isopentyl-6-(pyridin-4-yl)-3,4-dihydroquinazolin-4-yl)methanol]	35
CCc1nc(C(N)CC(C)C)nc2ccc(-c3ccncc3)cc12 (centres unmarked) [Example 62, 1-(4-Ethyl-6-(pyridin-4-yl)quinazolin-2-yl)-3-methylbutan-1-amine]	37
CCc1nc(C(N)CC(C)C)nc2ccc(-c3cn[nH]c3)cc12 (centres unmarked) [Example 63, 1-(4-Ethyl-6-(1H-pyrazol-4-yl)quinazolin-2-yl)-3-methylbutan-1-amine]	28
CCc1nc(C(N)CC(C)C)nc2ccc(-c3ccncn3)cc12 (centres unmarked) [Example 64, 1-(4-Ethyl-6-(pyrimidin-4-yl)quinazolin-2-yl)-3-methylbutan-1-amine]	83
CCc1nc(C(C)CC(C)C)nc2ccc(-c3ccncc3)cc12 (centres unmarked) [Example 65, 4-Ethyl-2-(4-methylpentan-2-yl)-6-(pyridin-4-yl)quinazoline]	223
CCc1nc(C(C)CC(C)C)nc2ccc(-c3ccnc(NC(C)=O)c3)cc12 (centres unmarked) [Example 66, N-(4-(4-Ethyl-2-(4-methylpentan-2-yl)quinazolin-6-yl)pyridin-2-yl)acetamide]	258
CCc1nc(C(C)CC(C)C)nc2ccc(-c3ccnc(NC)c3)cc12 (centres unmarked) [Example 67, 4-(4-Ethyl-2-(4-methylpentan-2-yl)quinazolin-6-yl)-N-methylpyridin-2-amine]	1500
CCc1nc(C(CN)CC(C)C)nc2ccc(-c3ccncc3)cc12 (centres unmarked) [Example 68, 2-(4-Ethyl-6-(pyridin-4-yl)quinazolin-2-yl)-4-methylpentan-1-amine]	144
CCc1nc(C(N)CCC(F)(F)F)nc2ccc(-c3ccncc3)cc12 (centres unmarked) [Example 69, 1-(4-Ethyl-6-(pyridin-4-yl)quinazolin-2-yl)-4,4,4-trifluorobutan-1-amine]	32
CCc1nc([C@H](N)CC2CC2)nc2ccc(-c3ccncc3)cc12 [Example 70, (R)-2-Cyclopropyl-1-(4-ethyl-6-(pyridin-4-yl)quinazolin-2-yl)ethanamine]	126
CCc1nc([C@H](N)C2CCCC2)nc2ccc(-c3ccncc3)cc12 [Example 71, (R)-Cyclopentyl(4-ethyl-6-(pyridin-4-yl)quinazolin-2-yl)methanamine]	32
CCc1nc([C@H](N)C2CCCCC2)nc2ccc(-c3ccncc3)cc12 [Example 72, (R)-Cyclohexyl(4-ethyl-6-(pyridin-4-yl)quinazolin-2-yl)methanamine]	13
CC(C)CC(N)c1nc(N2CCC2)c2cc(-c3ccncc3)ccc2n1 (centres unmarked) [Example 73, 1-(4-(Azetidin-1-yl)-6-(pyridin-4-yl)quinazolin-2-yl)-3-methylbutan-1-amine]	44
CC(C)CC(N)c1nc(N2CC2)c2cc(-c3ccncc3)ccc2n1 (centres unmarked) [Example 74, 1-(4-(Aziridin-1-yl)-6-(pyridin-4-yl)quinazolin-2-yl)-3-methylbutan-1-amine]	263
COc1cc2nc(CCC(C)C)nc(C)c2cc1-c1cnco1 [Example 75, 5-(2-Isopentyl-7-methoxy-4-methylquinazolin-6-yl)oxazole]	590
CC(C)CCc1nc(NCCO)c2cc(-c3cnco3)ccc2n1 [Example 76, 2-((2-Isopentyl-6-(oxazol-5-yl)quinazolin-4-yl)amino)ethanol]	1810
COCCNc1nc(CCC(C)C)nc2ccc(-c3cnco3)cc12 [Example 77, 2-Isopentyl-N-(2-methoxyethyl)-6-(oxazol-5-yl)quinazolin-4-amine]	3460
CC(C)CCc1nc(NCCN2CCCC2)c2cc(-c3cnco3)ccc2n1 [Example 78, 2-Isopentyl-6-(oxazol-5-yl)-N-(2-(pyrrolidin-1-yl)ethyl)quinazolin-4-amine]	1090
Cc1cnc(CNc2nc(CCC(C)C)nc3ccc(-c4cnco4)cc23)cn1 [Example 79]	6600
CC(C)CCc1nc(NCCCN(C)C)c2cc(-c3cnco3)ccc2n1 [Example 80, N^1-(2-Isopentyl-6-(oxazol-5-yl)quinazolin-4-yl)-N^3,N^3-dimethylpropane-1,3-diamine]	3320
CC(C)CCc1nc(NCCN(C)C)c2cc(-c3cnco3)ccc2n1 [Example 81, N^1-(2-Isopentyl-6-(oxazol-5-yl)quinazolin-4-yl)-N^2,N^2-dimethylethane-1,2-diamine]	8610
COC(=O)CCNc1nc(CCC(C)C)nc2ccc(-c3cnco3)cc12 [Example 82, Methyl 3-((2-isopentyl-6-(oxazol-5-yl)quinazolin-4-yl)amino)propanoate]	4620
